Test: water solubility of tris(isonitrile)copper(I) complexes
Assay type: physicochemical

Question: Which “water solubility, relative” value (compared with the tris(isonitrile)copper(I) adducts of U.S. Pat. No. 4,885,100) does the source give for O=S(=O)([O-])[O-].[C-]#[N+]CC(C)(C)OC.[C-]#[N+]CC(C)(C)OC.[C-]#[N+]CC(C)(C)OC.[C-]#[N+]CC(C)(C)OC.[C-]#[N+]CC(C)(C)OC.[C-]#[N+]CC(C)(C)OC.[Cu+].[Cu+] [[Cu(MIBI)3]2 [SO4], tris(1-isocyano-2-methoxy-2-methylpropane)copper(I) sulfate] here?
Answer: The value was “more soluble”.

Question: What about the water solubility (sulfate complexes of the present invention, in water) of the same compound?
Answer: The water solubility was greater than 100 mg/mL.

Reference: patent US5693324A, “Tris(isonitrile) copper(I) sulfates for preparing radionuclide complexes” (The DuPont Merck Pharmaceutical Company, priority 1995, dated 1997)
